Experimental data taken from patent US20260109707A1, “HETEROBIFUNCTIONAL COMPOUNDS AND METHODS OF TREATING DISEASE” (Halda Therapeutics OpCo. Inc., priority 2022, published 2026).
Where two headings read alike, the source gives them in different places.

Columns and labels:
[1] = tested on: VCaP cells; assay: Cellular growth inhibition assay for VCaP cells (CellTiter-Glo, 72 hours); format: cell-based, human
Method in brief: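 Luminescent viability signal after 72 h of compound exposure gave GI50 values by four-parameter nonlinear regression. Compounds were added in 0.5% DMSO to cells plated 24 h earlier at 5000/well in DMEM containing 10% FBS.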

[2] = tested on: T-Rex 293 cell line SC3 cells lacking increased expression of androgen receptor protein; assay: Cellular growth inhibition assay, T-Rex 293 SC3 cells without doxycycline (CellTiter-Glo, 72 hours); format: cell-based; conditions: T-Rex 293 cell line SC3 cells not exposed to doxycycline (lacking increased androgen receptor expression)
Method in brief: (§1)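 Growth inhibition is measured in an inducible AR-expressing T-Rex 293 clone, SC3, cultured with or without 10 ng/mL doxycycline in hormone-depleted medium. Test compounds are applied for 72 hours. GI50 values derive from CellTiter-Glo 2.0 signal fitted by four-parameter regression.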

[3] = tested on: T-Rex 293 cell line SC3 cells having increased expression of androgen receptor protein due to exposure to doxycycline; assay: Cellular growth inhibition assay, T-Rex 293 SC3 cells with doxycycline (CellTiter-Glo, 72 hours); format: cell-based; conditions: T-Rex 293 SC3 cells with increased androgen receptor expression due to doxycycline (10 ng/mL)
Method in brief: as §1

| Structure (SMILES) | GI50 ([1]; Homo sapiens, VCaP, 72 h) [nM] | GI50 ([2]; 72 h) [nM] | GI50 ([3]; 72 h) [nM] | GI50 [2] [nM] | GI50 [1] [nM] | GI50 [3] [nM] |
| --- | --- | --- | --- | --- | --- | --- |
| Cc1sc2c(c1C)C(c1ccc(C#CC3CC4(CCCN(c5ccc(C(=O)N[C@H]6CC[C@H](Oc7ccc(C#N)c(Cl)c7)CC6)nn5)C4)C3)nc1)=N[C@@H](C)c1nnc(C)n1-2 (stereo partly drawn) [I-459] | < 500 | < 500 | < 500 |  |  |  |
| Cc1sc2c(c1C)C(c1ccc(COC3CCC4(C3)CN(c3ccc(C(=O)N[C@H]5CC[C@H](Oc6ccc(C#N)c(Cl)c6)CC5)nn3)CCO4)cc1)=N[C@@H](C)c1nnc(C)n1-2 (stereo partly drawn) [I-557] | < 500 |  | < 500 | < 500 |  |  |
| Cc1sc2c(c1C)C(c1ccc(N3CC(C4CCN(c5ccc(C(=O)N[C@H]6CC[C@H](Oc7ccc(C#N)c(Cl)c7)CC6)nn5)C4)C3)cc1)=N[C@@H](C)c1nnc(C)n1-2 (stereo partly drawn) [I-555] | < 500 | < 500 | < 500 |  |  |  |
| Cc1sc2c(c1C)C(c1ccc(CC3CC4(CCCN(c5ccc(C(=O)N[C@H]6CC[C@H](Oc7ccc(C#N)c(Cl)c7)CC6)nn5)C4)C3)cn1)=NC(Cc1ncco1)c1nnc(C)n1-2 (stereo partly drawn) [I-771] |  |  |  | < 500 | < 500 | < 500 |
| Cc1sc2c(c1C)C(c1ccc(N3C[C@@H]4CN(c5ccc(C(=O)N[C@H]6CC[C@H](Oc7ccc(C#N)c(Cl)c7)CC6)nn5)C[C@@H]4C3)cc1F)=N[C@@H](C)c1nnc(C)n1-2 [I-676] | < 500 | < 500 | < 500 |  |  |  |
| Cc1sc2c(c1C)C(c1ccc(N[C@H]3CCCCN(c4ncc(C(=O)N[C@H]5CC[C@H](Oc6ccc(C#N)c(Cl)c6)CC5)cn4)C3)cc1)=NC(Cc1ncco1)c1nnc(C)n1-2 (stereo partly drawn) [I-803] | < 500 | > 3000 | < 500 |  |  |  |
| Cc1sc2c(c1C)C(c1ccc(OC3CN(C(C)(C)C4CCN(c5ccc(C(=O)N[C@H]6CC[C@H](Oc7ccc(C#N)c(Cl)c7)CC6)nn5)CC4)C3)cc1)=N[C@@H](C)c1nnc(C)n1-2 [I-587] | 1500 to 3000 | < 500 | < 500 |  |  |  |
| Cc1sc2c(c1C)C(c1ccc(N3CC(C4CCN(c5ccc(C(=O)N[C@H]6CC[C@H](Oc7ccc(C#N)c(Cl)c7)CC6)nn5)CC4)C3)cc1)=NCc1nnc(C)n1-2 [I-451] | 500 to 1500 | > 3000 | < 500 |  |  |  |
| Cc1sc2c(c1C)C(c1ccc(CC3CCC4(CCCN(c5ccc(C(=O)N[C@H]6CC[C@H](Oc7ccc(C#N)c(Cl)c7)CC6)nn5)C4)C3)nc1)=N[C@@H](C)c1nnc(C)n1-2 (stereo partly drawn) [I-666] |  |  |  | > 3000 | < 500 | < 500 |
| CC[C@@H]1N=C(c2ccc(N3CCC4(CCN(c5ccc(C(=O)N[C@H]6CC[C@H](Oc7ccc(C#N)c(Cl)c7)CC6)nn5)CC4)C3)cc2)c2c(sc(C)c2C)-n2c(C)nnc21 [I-599] | > 3000 | > 3000 | < 500 |  |  |  |
| Cc1sc2c(c1C)C(c1ccc(CC3CC4(CCCN(c5ccc(C(=O)N[C@H]6CC[C@H](Oc7ccc(C#N)c(Cl)c7)CC6)nn5)C4)C3)cn1)N[C@@H](Cc1ncco1)c1nnc(C)n1-2 (stereo partly drawn) [I-642] | > 3000 | > 3000 | < 500 |  |  |  |
| Cc1sc2c(c1C)C(c1ccccc1OC1CC3(CCCN(c4ccc(C(=O)N[C@H]5CC[C@H](Oc6ccc(C#N)c(Cl)c6)CC5)nn4)C3)C1)=N[C@@H](C)c1nnc(C)n1-2 (stereo partly drawn) [I-717] |  |  |  | > 3000 | > 3000 | > 3000 |
| Cc1sc2c(c1C)C(c1ccc(OC3CC4(C3)CC3(CCN(c5ccc(C(=O)N[C@H]6CC[C@H](Oc7ccc(C#N)c(Cl)c7)CC6)nn5)CC3)C4)nc1)=NCc1nnc(C)n1-2 [I-479] | < 500 | > 3000 | < 500 |  |  |  |
| Cc1sc2c(c1C)C(c1cccc(CC3CC4(CCCN(c5ccc(C(=O)N[C@H]6CC[C@H](Oc7ccc(C#N)c(Cl)c7)CC6)nn5)C4)C3)c1)=N[C@@H](C)c1nnc(C)n1-2 (stereo partly drawn) [I-712] |  |  |  | > 3000 | < 500 | < 500 |
| Cc1sc2c(c1C)C(c1ccc(C#CC3CC4(C3)CN(c3ccc(C(=O)N[C@H]5CC[C@H](Oc6ccc(C#N)c(Cl)c6)CC5)nn3)C4)cc1)=NC(C(F)(F)F)c1nnc(C)n1-2 (stereo partly drawn) [I-741] |  | > 3000 |  |  | < 500 | < 500 |
| Cc1sc2c(c1C)C(c1ccc(C3CCC4(CCN(c5ccc(C(=O)N[C@H]6CC[C@H](Oc7ccc(C#N)c(Cl)c7)CC6)nn5)CC4)C3)nc1)=NC1(CC1)c1nnc(C)n1-2 (stereo partly drawn) [I-738] |  |  |  | > 3000 | < 500 | < 500 |
| Cc1sc2c(c1C)C(c1ccc(C3CN(C4CCN(c5ccc(C(=O)N[C@H]6CC[C@H](Oc7ccc(C#N)c(Cl)c7)CC6)nn5)CC4)C3)cc1)=NC1(CC1)c1nnc(C)n1-2 [I-552] | > 3000 | 1500 to 3000 | < 500 |  |  |  |
